Results on one molecule are retold here after patent US6355676B1, “Fumaric acid micro tablets” (Fumapharm AG, priority 1998, dated 2002).

For one assay, the system named is isolated monocytes. Description: Endotoxin-stimulated TNF-α secretion in isolated monocytes. The format is cell-based, human. Conditions: initial exposure. The source says:
(§1) With multiple re-exposure, the endotoxin-induced increase in TNF-α secretion is reduced, i.e. adaptation takes place.

The subject of assay [1] is human mononuclear cells of the peripheral blood (PBMC). Kind of assay: Endotoxin-stimulated TNF-α secretion in PBMC. The format is cell-based.
Source text: as §1

Where a name gives a salt, the structure may show the parent alone.

In the case of `COC(=O)/C=C/C(=O)O` [methyl hydrogen fumarate], the “endotoxin-stimulating TNF-α secretion” value in the assay on isolated monocytes was “initially increases”; in assay [1] (initial exposure, PBMC), “initially increases”. In addition, the “endotoxin-induced increase in TNF-α secretion” value in assay [1] (multiple re-exposure, cell type not restated) is “reduced”.
